Results on one molecule are retold here after paper PMC6017873 (Molecules : A Journal of Synthetic Chemistry and Natural …, 2018).

One data set relates to A-549 cells. Kind of data set: Acetylation of sirtuin targets by Western blot, A-549. Type of data set: cell-based, human. Conditions: A-549, 5 and 50 µM, 8 h. The protocol: Figure 5 Effect of eurochevalierine on the acetylation status of sirtuin targets. SK-MEL-28, U-373, and A-549 cells were treated with 5 and 50 µM eurochevalierine (EU) for 8 h. Acetylation of histone H4 (AcH4), histone H3 at lysine 56 (AcH3K56), and α-tubulin (Ac α-tubulin) was analyzed via Western blot. β-actin and histone H1 were used as loading controls for the analysis of total and acid extracts, respectively. SAHA (S, 1 µM) was used as a reference HDAC inhibitor. Blots are representative of three independent experiments.
Total proteins were extracted using the MPER® reagent (Thermo-scientific, Erembodegem-Aalst, Belgium) supplemented by 1× protease inhibitor cocktail (Complete EDTA-free, Roche, Prophac, Luxembourg, Luxembourg) according to manufacturer’s instructions. Histones were extracted as previously described. Western blots were carried out as previously reported.
Corresponding secondary antibodies were from Santa Cruz Biotechnology.

The target in another data set is T1, SIRT1 (Homo sapiens, UniProt Q96EB6).
T1 sequence (Q96EB6 1-747): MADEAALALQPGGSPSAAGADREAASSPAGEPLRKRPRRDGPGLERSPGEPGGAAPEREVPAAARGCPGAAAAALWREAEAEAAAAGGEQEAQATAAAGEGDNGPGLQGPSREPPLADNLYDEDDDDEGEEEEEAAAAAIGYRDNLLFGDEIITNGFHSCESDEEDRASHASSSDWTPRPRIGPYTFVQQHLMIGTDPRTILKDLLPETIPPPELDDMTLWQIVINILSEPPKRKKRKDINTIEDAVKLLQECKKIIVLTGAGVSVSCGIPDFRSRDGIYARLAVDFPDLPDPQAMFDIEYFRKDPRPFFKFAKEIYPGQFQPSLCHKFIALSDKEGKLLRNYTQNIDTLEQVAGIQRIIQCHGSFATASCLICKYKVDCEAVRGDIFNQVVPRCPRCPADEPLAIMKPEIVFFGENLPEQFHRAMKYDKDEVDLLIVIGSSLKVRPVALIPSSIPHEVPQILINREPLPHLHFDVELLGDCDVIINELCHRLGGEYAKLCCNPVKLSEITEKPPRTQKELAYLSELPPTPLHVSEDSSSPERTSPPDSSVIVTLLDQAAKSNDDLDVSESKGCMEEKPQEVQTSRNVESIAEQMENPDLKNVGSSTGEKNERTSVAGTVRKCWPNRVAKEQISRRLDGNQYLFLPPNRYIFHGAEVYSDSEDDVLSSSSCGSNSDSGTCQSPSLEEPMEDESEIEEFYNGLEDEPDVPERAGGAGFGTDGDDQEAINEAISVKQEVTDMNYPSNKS
The experiment in a line: In vitro SIRT1 activity assay. Conditions: IC50 SIRT1, mean ± SD of three independent experiments.

The subject of data set [1] is total HDAC activity (K-562 nuclear extracts). The experiment in a line: In vitro total HDAC activity using K-562 nuclear extracts. Conditions: 100 µM. The data set is classed as biochemical, human. The protocol: (§1) (a) In vitro total HDAC activity was evaluated using K-562 nuclear extracts in the presence of various concentrations of eurochevalierine. (b) Selective in vitro HDAC activity assays were carried out using selected recombinant HDAC proteins in the presence of various concentrations of eurochevalierine. Results are reported as percent of DMSO vehicle control and expressed as the mean ± SD of three independent experiments. * and ** indicate p < 0.05 and p < 0.01 versus untreated cells, respectively.

For a further data set, the target named is T2, SIRT3 (Homo sapiens, UniProt Q9NTG7).
T2 sequence (Q9NTG7 1-399): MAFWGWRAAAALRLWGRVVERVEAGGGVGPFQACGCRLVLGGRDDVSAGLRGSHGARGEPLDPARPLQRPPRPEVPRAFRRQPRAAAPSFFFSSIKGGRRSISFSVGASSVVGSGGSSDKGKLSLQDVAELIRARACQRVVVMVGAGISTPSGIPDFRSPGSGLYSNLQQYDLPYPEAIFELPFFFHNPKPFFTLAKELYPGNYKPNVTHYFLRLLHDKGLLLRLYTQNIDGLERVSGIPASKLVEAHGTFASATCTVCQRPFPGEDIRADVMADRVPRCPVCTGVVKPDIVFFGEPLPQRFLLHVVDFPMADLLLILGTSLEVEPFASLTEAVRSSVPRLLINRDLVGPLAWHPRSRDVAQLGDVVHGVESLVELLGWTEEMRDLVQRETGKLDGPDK
The experiment in a line: In vitro SIRT3 activity assay. Type of data set: biochemical.

A further data set concerns the target T3, HDAC8 (Homo sapiens, UniProt Q9BY41).
T3 sequence (Q9BY41 1-377): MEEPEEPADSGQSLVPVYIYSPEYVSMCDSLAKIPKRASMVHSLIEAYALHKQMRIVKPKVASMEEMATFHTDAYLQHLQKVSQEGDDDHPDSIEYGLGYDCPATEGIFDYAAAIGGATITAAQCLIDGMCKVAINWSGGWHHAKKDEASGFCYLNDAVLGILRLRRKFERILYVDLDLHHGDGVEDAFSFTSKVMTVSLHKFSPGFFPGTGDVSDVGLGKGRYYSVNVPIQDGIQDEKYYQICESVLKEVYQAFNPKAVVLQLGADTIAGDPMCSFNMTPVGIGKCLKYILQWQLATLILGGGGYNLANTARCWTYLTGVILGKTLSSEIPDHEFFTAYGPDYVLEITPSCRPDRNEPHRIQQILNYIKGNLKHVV
The experiment in a line: Selective in vitro HDAC activity assay, recombinant HDAC8. The data set is classed as biochemical. As to conditions: 100 µM. The protocol:
as §1

For data set [2], the system named is PBMCs from healthy donors. The experiment in a line: Viability of PBMCs from healthy donors (Trypan Blue exclusion). The data set is classed as cell-based. As to conditions: up to 48 h, up to 100 µM. The protocol:
The viability of PBMCs from healthy donors was assessed after 24 and 48 h of treatment at the indicated concentration of eurochevalierine. Results correspond to mean ± SD of three independent experiments.
PBMCs were isolated as previously reported.
PBMCs and CD34^+ cells were processed through a semi-automated image-based cell analyzer (Cedex XS Innovatis, Roche, Luxembourg), which provides information about cell concentration and viability based on the Trypan Blue exclusion method.

Where “and” joins values, the source holds several entries; their conditions need not be identical. Identical values can stand only once. A value given as a limit tells only on which side of the number the result lay.

One may read the IC50 as the concentration that inhibits the measured activity by half. Lower therefore signals greater potency in that assay. On to `C=C(C)[C@@H]1CC[C@@H](C)[C@@]2(O)[C@@H]1C=C(C)[C@@H](OC(C)=O)[C@@H]2OC(=O)[C@H](CC(=O)c1ccccc1NC)NC=O` [Eurochevalierine, eurochevalierine], for which, in the data set on A-549 cells, the “acetylation of sirtuin targets (AcH4, AcH3K56, Ac α-tubulin)” value is “robust and dose-dependent increase”. Besides, the half-inhibitory concentration (IC50) against SIRT1 is ~10 µM and 9.8 µM; against SIRT3 (mean ± SD of three independent experiments), greater than 100 µM. Also, in data set [1], the “inhibition of total HDAC activity” value is “about 33%”. Moreover, the “remaining SIRT3 enzymatic activity compared to the control set to 100%” value on SIRT3 (at 100 µM) is 59%. Moreover, the “effect on HDAC8 deacetylase activity” value on HDAC8 is “without effect”. Besides, the “acute toxicity on viability of PBMCs” value in data set [2] is “does not trigger any acute toxicity”.
